Data published in patent US8288364B2, “Botanically derived composition and a process thereof” (Indus Biotech Private Limited, priority 2008, dated 2012).

Experiments:
[1] = system: Diabetes Induced with Alloxan; assay: Blood sugar levels in early stages of diabetes induced with alloxan; assay type: in vivo, Wistar rats; conditions: alloxan-diabetic rats; for Blood sugar level, 0 day: day 0; for Blood sugar level, 0 day / Blood sugar level, 15 day / Blood sugar level, 30 day: doses: test compound 60 mg/kg, fenugreek seed powder 2 g/kg, crude alcohol extract 1 g/kg, pioglitazone 5 mg/kg; for Change in BSL (%): day 0 to day 30, numbers are printed as DECREASE, doses as in the row (60 mg/kg, 2 g/kg, 1 g/kg, 5 mg/kg); for Blood sugar level, 15 day: day 15 of treatment; for Blood sugar level, 30 day: day 30 of treatment
Protocol: (§1) Male Wistar rats were injected with alloxan monohydrate (160 mg/kg i.p.) to induce diabetes. After 48 hours of injection blood glucose levels were determined using glucose estimation kits. Animals with blood glucose levels above 300 mg/dl were selected and divided into four groups of 6 rats in each group.
Group 1: Non-Diabetic Control
Group 2: Diabetes Control
Group 3: Test Compound (60 mg/kg)
Group 4: Pioglitazone (Standard Drug) (5 mg/kg)
(§2) The animals were given respective drug solutions in stipulated dose, for 30 days. On the 0th, 15th and 30th day of treatment, the blood sugar levels and body weights were analyzed.
Serum was obtained by centrifuging the blood obtained by retero-orbital blood withdrawal at 7000 rpm at 4° C. for 15 min. The serum obtained was collected for Blood sugar level determinations. The below table provides data on blood glucose levels of various groups.

[2] = Body weight in early stages of diabetes induced with alloxan; assay type: in vivo, Wistar rats; conditions: alloxan-diabetic rats, test compound 60 mg/kg, pioglitazone 5 mg/kg; for Body weight, 0 day: day 0; for % Change in Body weight: day 0 to day 30, numbers are printed as INCREASE; for Body weight, 15 day: day 15; for Body weight, 30 day: day 30
Protocol: as §1, §2
There was a significant decrease in body weight in diabetic group as compared to non diabetic group. In the test compound treated group the body weight on 0 day was 185.16 & 240.83 on 30 day. […] There was a 29% increase in weight in the animals treated with the test compound that was an excellent result when compared to the 9% decrease in body weight of the untreated diabetic animals. The below table provides the percentage change in body weight of groups treated with respective treatments.

[3] = Body composition (anabolic/androgenic activity) in castrated immature rats, 4 weeks of treatment; assay type: in vivo, Wistar rats
Excerpt: Immature male Wistar rats weighing about 55 gm (±5 gm) were selected for the study. These rats were anesthetized by anesthetic ether and castrated. After 4 weeks of treatment, animals were sacrificed and the seminal vesicles, the ventral prostate, and the muscle levator ani carefully dissected and weighed. Body weight of the animals was registered at the beginning and at the end of the experiment. Increase in weight of seminal vesicles and ventral prostate indicates androgenic activity, whereas increase in weight of levator ani muscles was considered to indicate anabolic activity.

[4] = system: serum testosterone; assay: Serum testosterone by radioimmunoassay in castrated immature rats after four weeks of treatment; assay type: in vivo, Wistar rats; conditions: daily treatment, 35 mg/kg p.o., RIA
Protocol: In addition, to rule out any possibility of androgenic activity in the increase in body weight and muscle mass, the serum testosterone levels were measured.
Immature male Wistar rats weighing about 55 gm (±5gm) were selected for the study. These rats were anesthetized by anesthetic ether and castrated. After four weeks of treatment, the blood was withdrawn from the rats by retro orbital puncture method and analyzed for serum testosterone, which was measured with the help of radioimmunoassay (RIA) kit.

[5] = Double-blind, placebo-controlled clinical study: body composition (body fat) by bioelectric impedance and hydrostatic weighing; assay type: in vivo, human; conditions: volunteers, 500 mg supplementation, 8 weeks, resistance training 4 times/week
Protocol: (§3) Subsequently, a double-blind, placebo-controlled study in 49 pre-trained volunteers was conducted to assess the safety and efficacy of the test compound. This 2 month study was conducted with supplementation of 500 mg of the test compound and the volunteers were on resistance training 4 times/week. During this study the effect of the test compound on body composition (fat content) and strength were evaluated.
Body density was analyzed by bioelectric impedance and hydrostatic weighing. Based on these parameters fat free mass was calculated. From the FIG. 5 it is concluded that during the study period of 8 weeks, the test product reduced the body fat by 12%. This is a significant reduction.

[6] = Double-blind, placebo-controlled clinical study: strength (isotonic bench and leg press); assay type: in vivo, human; conditions: volunteers, 500 mg, 2 month study, weight lifted
Protocol: as §3
Since this product was used to increase muscle mass, the effect of the test compound on the strength of the volunteers was evaluated. This was done by conducting isotonic repetitions of bench and leg press exercises. An increase in strength was determined based on an increase in weight lifted during these two exercises.

[7] = system: 3T3-L1 cells; assay: Deoxy-D-Glucose, 2-(1-14C) uptake in 3T3-L1 cells (insulin-like action); assay type: cell-based
Protocol: This example studies the time and dose dependant uptake of Deoxy-D-Glucose, 2-(1-^14C) uptake in 3T3-L1 cells treated with the test compound. 3T3-L1 cells were cultured (DMEM+FBS) in a 24 well plate and were treated with a 5 μg/ml and a 50 μg/ml dose of the test compound for 10 or 30 min. Cells treated with 100 nM insulin was used as a positive control. Radioactivity (cpm) was measured with TopCount (Packard).

[8] = Levator ani muscle mass in alloxan-diabetic animals; assay type: in vivo, Wistar rats; conditions: alloxan-diabetic animals on treatment, FIG. 8
Excerpt: A subsequent study was done to evaluate the impact of the increase in weight on the muscle content of the animals.
The levitor ani muscles of these animals were checked for the drugs effect on muscle mass.

Row | Compound | Blood sugar level, 0 day [1] | Change in BSL (%) [1] | Blood sugar level, 15 day [1] | Blood sugar level, 30 day [1] | Body weight, 0 day [2] | % Change in Body weight [2] | Body weight, 15 day [2] | Body weight, 30 day [2] | further results
1 | CCc1ccc(CCOc2ccc(CC3SC(=O)NC3=O)cc2)nc1 (centres unmarked) [Pioglitazone, reference compound] | 438.66 ± 6.37 mg/dL | 35.8% DECREASE | 376.33 ± 7.29 mg/dL | 281 ± 5.92 mg/dL | 165 ± 5.41 gm | 25% INCREASE | 198.5 ± 6.45 gm | 207.83 ± 4.49 gm | –
2 | OCC1O[C@H](OCC2O[C@@H](O[C@@H]3C(CO[C@H]4OC(CO)[C@H](O)C(O)C4O)O[C@@H](O)C(O)C3O)C(O)C(O)[C@@H]2O)C(O)C(O)[C@H]1O (some centres unmarked) [test compound] | 416.5 ± 14.42 mg/dL | 55% | 294.5 ± 12.22 mg/dL | 187 ± 9.33 mg/dL | 185.16 gm | 29% | 215.83 ± 6.05 gm | 240.83 gm | weight of the levator ani muscles (anabolic activity) ([3]; 4 weeks of treatment): significant increase; weights of organs of the male reproductive system (prostate, seminal vesicle and penis); androgenic activity ([3]; 4 weeks, 10 and 35 mg/kg): did not increase; change in body weight ([3]; four-week treatment, 10 mg/kg p.o): did not cause any change; body weight compared with control group ([3]; four-week treatment, 35 mg/kg p.o): significant rise; total serum testosterone levels [4]: no significant increase; reduction of body fat [5]: 12%; increase in strength compared to placebo, bench press [6]: 100%; increase in strength compared to placebo, leg press [6]: 80%; glucose uptake ([7]; dose of 5 μg/ml, 10 or 30 min): enhanced glucose uptake; Change in BSL (%) ([1]; listed as Test Compound): 55% DECREASE; Body weight, 0 day ([2]; listed as Test Compound): 185.16 ± 6.53 gm; % Change in Body weight ([2]; listed as Test Compound): 29% INCREASE; Body weight, 30 day ([2]; listed as Test Compound): 240.83 ± 6.42 gm; muscle mass (levitor ani muscles) [8]: significant increase
3 | C[C@]12CC[C@H]3[C@@H](CCC4=CC(=O)CC[C@@]43C)[C@@H]1CC[C@@H]2O [testosterone, reference compound] | – | – | – | – | – | – | – | – | body weight compared with control group ([3]; four weeks, 10 mg s.c biweekly): significant rise
4 | Insulin [reference compound] | – | – | – | – | – | – | – | – | stimulation of glucose uptake ([7]; 100 nM insulin, 10 min): 1.74 fold
